According to ChEMBL document CHEMBL1149725, “4-acetylaplykurodin B and aplykurodinone B, two ichthyotoxic degraded sterols from the Mediterranean mollusk Aplysia fasciata” (J Nat Prod, 1992):

Key:
Type in all cases: organism-based
Conditions in all cases: in vivo; call rule not given here
[1] = tested on: Carassius auratus; assay: Ichthyotoxicity in Carassius auratus at 60 ug/cm'2 by antifeedant assay
[2] = tested on: Gambusia affinis; assay: Toxicity in Gambusia affinis at 10 ppm
[3] = tested on: Artemia salina; assay: Toxicity in Artemia salina

| Compound | Activity [1] | Activity [2] | LC50 [3] |
| --- | --- | --- | --- |
| CC(=O)O[C@H]1CC[C@@]2(C)[C@H]3[C@H]1CC(=O)O[C@H]3C[C@@H]2[C@H](C)CCC=C(C)C [4-ACETYLAPLYKURODIN B] | Active | Toxic | 29.1 ppm |
| CC(C)=CCC[C@@H](C)[C@H]1C[C@@H]2OC(=O)C[C@H]3C(=O)CC[C@@]1(C)[C@H]23 [APLYKURODINONE] | Active | Toxic | – |
